Experiments:
CT-26 tumors [1] = assay: Gene expression analysis (Taqman) of excised CT-26 tumors; format: in vivo, mice; conditions: all genes of Table 4; single-agent groups versus vehicle; result in words
Method: (§1) For mechanism analysis CT-26 tumors are excised on day 20, 1 h following the last dose of Compound A. A small piece of approximately 30 mg is cut and stored in RNALater for gene expression analysis. The remainder of the tumor is processed for the flow-cytometry analysis.
For RNA isolation from the tumor, approximately 30 mg tissue is cut. RNA is extracted by RNeasy Protocol (version January 2002) using RNeasy 96-well Column Plates (Qiagen, Valencia, Calif.; Cat #74182) and QiaVac 96 vacuum manifold at 15 psi vacuum. […] The total RNA concentration is estimated using Nanodrop ND-1000 spectrophotometer by absorbance at 260 nm (Thermo Scietific). […]
For Taqman procedure, 100 μL of cDNA is diluted with 200 μL RNase/DNase-free water in 96-Well Clear Optical Reaction Plate (Applied Biosystems, Cat #4306737) and transferred to 2 mL RNase/DNase-free tubes (Ambion, Cat #AM12475). […] Samples are dispensed with Tecan Automated Pipetting Workstation (Tecan US Inc., Durham, N.C.; Model: Freedom Evo-100 or Evo-150), and plates are read in ABI Prism 9700HT SDS plate reader with following protocol settings: 50° C. for 2 minutes, 95° C. for 10 minutes, and 40 cycles at 95° C. for 15 seconds and 60° C. for 1 minute. […] All calculations are done in Microsoft Excel spreadsheet template, and % inhibition is calculated from control values. […]

CT26 cells = assay: CT26 colorectal tumor growth in BALB/C mice (in-vivo study); conditions: CT26 s.c. in BALB/C mice
Method: For in-vivo studies 1×10^6 CT26 cells (ATCC® CRL2639™) a colorectal cancer cell line, in 0.2 mL Hank's Balanced Salt Solution (HBSS) is implanted by subcutaneous injection in the hind leg of 6-8 weeks of age BALB/C female mice (Harlan Laboratories). Mice are fed ad libitum on normal chow. Treatment is initiated on day 6 of tumor implantation with oral administration (gavage) of Compound A in 1% Sodium carboxymethyl cellulose (Na-CMC) in 0.25% Tween® 80, or intraperitoneal injection of mouse anti PD-L1 antibody (10F.9G2, BioXcell Catalogue #: BE0101) in phosphate buffered saline (PBS) or intraperitoneal injection of mouse anti PD-1 (CD279) antibody (Clone: RMP1-14, BioXCell #: BP0146-R) in PBS or their respective vehicle in 0.2 mL volume. Compound A is administered at 8 mg/kg on a Monday, Wednesday and Friday schedule for 2 weeks and 10F.9G2 and RMP1-14 are administered at 250 μg/dose/animal on Monday and Thursday schedule for 2 weeks.
Tumor growth and body weight are monitored over time to evaluate efficacy and signs of toxicity. Bidimensional measurements of tumors are performed twice a week and tumor volumes are calculated based on the following formula: (Tumor Volume)=[(L)×(W2)×(Π/6)] where L is mid-axis length and W is mid-axis width. Tumor volume data are transformed to a log scale to equalize variance across time and treatment groups. The log volume data are analyzed with a two-way repeated measures analysis of variance by time and treatment using the MIXED™ procedures in SAS™ software (version 8.2). The correlation model for the repeated measures is spatial power. Test Groups are: • 1: 1% CMC/0.25% Tween® 80/0.05% Antifoam, Monday-Wednesday-Friday ×2, PO/PBS Monday-Thursday ×2, IP • 2: Compound A, 8 mg/kg, Monday-Wednesday-Friday ×2, PO • 3: Compound B (PD-L1), 250 μg/dose, Monday-Thursday ×2, IP • 4: Compound C (PD-1), 250 μg/dose, Monday-Thursday ×2, IP • 5: Compound A, 8 mg/kg, Monday-Wednesday-Friday ×2, PO/Compound B (PD-L1), 250 μg/dose, Monday-Thursday ×2, IP • 6: Compound A, 8 mg/kg, Monday-Wednesday-Friday ×2, PO/Compound C (PD-1), 250 μg/dose, Monday-Thursday ×2, IP
Tumor growth and body weight are monitored over time to evaluate efficacy and signs of toxicity. Bidimensional measurements of tumors are performed twice a week and tumor volumes are calculated based on the following formula: (Tumor Volume)=[(L)×(W2)×(Π/6)] where L is mid-axis length and W is mid-axis width. Tumor volume data are transformed to a log scale to equalize variance across time and treatment groups. The log volume data are analyzed with a two-way repeated measures analysis of variance by time and treatment using the MIXED™ procedures in SAS™ software (version 8.2). The correlation model for the repeated measures is spatial power. Treated groups are compared to the control group at each time point. The MIXED™ procedure is also used separately for each treatment group to calculate adjusted means and standard errors at each time point. Both analyses account for the autocorrelation within each animal and the loss of data that occurs when animals with large tumors are removed from the study early. […] Antitumor activity is expressed as a tumor volume percentage for treatment versus control (% T/C) and is calculated by comparing tumor volume in the treatment group with vehicle treatment group. Percentage T/C and statistical significance value (p value) for the treatment groups is measured essentially as described above and summarized in Table 2. […]

CT-26 tumors [2] = assay: Flow-cytometry of intra-tumoral immune cell populations in excised CT-26 tumors; format: in vivo, mice; conditions: tumors excised day 20, 1 h after last dose of Compound A
Method: as §1
Tumors are weighed and then homogenized in 5 ml 4° C. complete media (CM; RPMI-1640/10% fetal bovine serum (FBS)) through 100 μm strainers to produce single-cell suspensions. Cells are centrifuged for 5 minutes at 466×g, 4° C.; the pellets are resuspended in fresh CM (0.5-3 ml, depending on pellet volume), and cells are counted using a Vi-Cell XR (Beckman Coulter). An equal number of total cells per tumor (10×10^6) are transferred to 96-well V-bottom microplates (Fisher Scientific). Cells are centrifuged (700×g, 3 min., 4° C.) and resuspended in 100 μl 1 μg/ml Fc block in CM (anti-CD16/32 (clone 2.4G2); Tonbo Biosciences) for 30 minutes on ice. Cells are centrifuged (700×g, 3 minutes, 4° C.) and resuspended in 100 μl of one of several fluochrome-conjugated surface marker antibody cocktails [anti-CD3 (clone 145-2C11), -Ly-6G (clone 1A8), -CD11c (clone HL3), -CD45 (clone 30-F11) (BD Biosciences), anti-CD8 (clone 53-6.7) (Biolegend), -CD11b (clone M1/70), -CD3 (clone 145-2C11), -F4/80 (clone BM8), -CD4 (clone RM4-5), (eBioscience)] containing a fixable viability dye (eBioscience) and incubated for 30 minutes on ice covered from light. Cells are twice washed with 200 μl CM and centrifuged (700×g, 3 min., 4° C.). Following the second wash, cells are fixed, permeabilized, and intracellularly stained for Ki67 (clone SolA15) (eBioscience) using the Foxp3/Transcription Factor Staining Buffer Set (eBioscience), following the manufacturer's instructions with noted modifications. Briefly, cells are fixed in 100 μl/well for 30 min., followed by 100 μl/well permeabilization buffer with or without intracellular stain (depending on the staining panel used) for 30 min. Cells are twice washed with 200 μl 1× permeabilization buffer and centrifuged (700×g, 3 min., 4° C.), followed by resuspension in PBS with 2% FBS. 1×10^6 events, excluding debris, are captured for each sample using a 10-channel LSR II cytometer (BD Biosciences) and analyzed using FlowJo V.10.0.8 software. Data is represented as percent of tumor cells, with noted exceptions where represented as percent of parent population. Post-hoc t-test following ANOVA is used for statistical analysis between vehicle and treatment groups.

SMILES: C[C@H](NC(=O)CCC(F)(F)F)C(=O)N[C@@H]1C(=O)N(CCO)c2ncccc2-c2ccccc21 [Compound A, 4,4,4-trifluoro-N-[(1S)-2-[[(7S)-5-(2-hydroxyethyl)-6-oxo-7H-pyrido[2,3-d][3]benzazepin-7-yl]amino]-1-methyl-2-oxo-ethyl]butanamide]
- change in the expression of genes examined (CT-26 tumors [1]): No significant change
- Tumor volume: Geometric Mean (CT26 cells; study day 8): 47.96 mm^3
- Tumor volume: Geometric Mean (CT26 cells; study day 10): 88.80 mm^3
- Tumor volume: Geometric Mean (CT26 cells; study day 14): 376.50 mm^3
- Tumor volume: Geometric Mean (CT26 cells; study day 17): 751.13 mm^3
- Tumor volume: Geometric Mean (CT26 cells; study day 20): 1227.40 mm^3
- CD4+/Ki67+ (% of CD4+) Mean % ± SEM (CT-26 tumors [2]): 7.6 ± 0.5%
- CD8+/Ki67+ (% of CD8+) Mean % ± SEM (CT-26 tumors [2]): 23.1 ± 2.0%
- CD11b + F4/80+ (% of Tumor) Mean % ± SEM (CT-26 tumors [2]): 0.89 ± 0.15%
- CD11b + Ly-6G + F4/80− (% of Tumor) Mean % ± SEM (CT-26 tumors [2]): 1.12 ± 0.08%
- CD11b+ (% of Tumor) Mean % ± SEM (CT-26 tumors [2]): 2.9 ± 0.2%
- CD11c+ (% of Tumor) Mean % ± SEM (CT-26 tumors [2]): 0.42 ± 0.06%
